Assay results: patent US10045983B2, “Heteroaryl pyridone and aza-pyrodine compounds” (Genentech, Inc., priority 2011, dated 2018)

Assay: CD69 Whole Blood Assay (CD69 Hu Blood FACS)
Assay type: cell-based, human
Conditions: Lymphocyte; human whole blood, anti-IgM activated B lymphocytes, FACS; IC70; Table 2 (unit inferred); read-out: CD69 Hu Blood FACS (IC70)
In short: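 Human whole blood stimulated by crosslinking surface IgM with goat F(ab′)2 anti-human IgM; inhibition of CD69 expression on B lymphocytes measured by flow cytometry.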

Row | Structure (SMILES) | IC70 [nM]
1 | Cn1nc(-c2ccnc(N3CCc4c(sc5c4CC(C)(C)C5)C3=O)c2CO)cc(Nc2ccc(C(=O)N3CCOCC3)cn2)c1=O [Example 259, 3-[3-(hydroxymethyl)-4-[1-methyl-5-[[5-(morpholine-4-carbonyl)-2-pyridyl]amino]-6-oxo-pyridazin-3-yl]-2-pyridyl]-7,7-dimethyl-1,2,6,8-tetrahydrocyclopenta[3,4]thieno[1,3-c]pyridin-4-one] | 301
2 | Cc1cc(Nc2cc(-c3ccnc(N4CCn5c(cc6c5CC(C)(C)C6)C4=O)c3CO)cn(C)c2=O)n[nH]1 [Example 260, 3-[3-(hydroxymethyl)-4-[1-methyl-5-[(5-methyl-1H-pyrazol-3-yl)amino]-6-oxo-3-pyridyl]-2-pyridyl]-7,7-dimethyl-1,2,6,8-tetrahydrocyclopenta[3,4]pyrrolo[3,5-b]pyrazin-4-one] | 60.6
3 | Cc1cc(Nc2cc(-c3ccnc(N4CCc5c(c(F)c6n5CCCC6)C4=O)c3CO)cn(C)c2=O)nn1C [Example 261, 2-[4-[5-[(1,5-dimethylpyrazol-3-yl)amino]-1-methyl-6-oxo-3-pyridyl]-3-(hydroxymethyl)-2-pyridyl]-10-fluoro-3,4,6,7,8,9-hexahydropyrido[3,4-b]indolizin-1-one] | 2900
4 | Cc1cnc(Nc2cc(-c3ccnc(N4CCn5c(cc6c5CC(C)(C)C6)C4=O)c3CO)cn(C)c2=O)o1 [Example 262, 3-[3-(hydroxymethyl)-4-[1-methyl-5-[(5-methyloxazol-2-yl)amino]-6-oxo-3-pyridyl]-2-pyridyl]-7,7-dimethyl-1,2,6,8-tetrahydrocyclopenta[3,4]pyrrolo[3,5-b]pyrazin-4-one] | 577
5 | Cn1nc(-c2ccnc(N3CCn4c5c(c(F)c4C3=O)CCCC5)c2CO)cc(Nc2ccncn2)c1=O [Example 263, 10-fluoro-2-[3-(hydroxymethyl)-4-[1-methyl-6-oxo-5-(pyrimidin-4-ylamino)pyridazin-3-yl]-2-pyridyl]-3,4,6,7,8,9-hexahydropyrazino[1,2-a]indol-1-one] | 2200
6 | Cn1cc(-c2ccnc(N3CCn4c(cc5c4CC(C)(C)C5)C3=O)c2CO)cc(Nc2ccnc(C(C)(C)O)n2)c1=O [Example 264, 3-[3-(hydroxymethyl)-4-[5-[[2-(1-hydroxy-1-methyl-ethyl)pyrimidin-4-yl]amino]-1-methyl-6-oxo-3-pyridyl]-2-pyridyl]-7,7-dimethyl-1,2,6,8-tetrahydrocyclopenta[3,4]pyrrolo[3,5-b]pyrazin-4-one] | 653
7 | CCC(=O)N1CCn2nc(Nc3cc(-c4ccnc(N5CCn6c(cc7c6CC(C)(C)C7)C5=O)c4CO)cn(C)c3=O)cc2C1 [Example 265, 3-[3-(hydroxymethyl)-4-[1-methyl-6-oxo-5-[(5-propanoyl-6,7-dihydro-4H-pyrazolo[1,5-a]pyrazin-2-yl)amino]-3-pyridyl]-2-pyridyl]-7,7-dimethyl-1,2,6,8-tetrahydrocyclopenta[3,4]pyrrolo[3,5-b]pyrazin-4-one] | 9.1
8 | Cn1cc(-c2ccnc(N3CCn4c(cc5c4CC(C)(C)C5)C3=O)c2CO)cc(Nc2cc(C3COC3)[nH]n2)c1=O [Example 266, 3-[3-(hydroxymethyl)-4-[1-methyl-5-[[5-(oxetan-3-yl)-1H-pyrazol-3-yl]amino]-6-oxo-3-pyridyl]-2-pyridyl]-7,7-dimethyl-1,2,6,8-tetrahydrocyclopenta[3,4]pyrrolo[3,5-b]pyrazin-4-one] | 29.3
9 | Cc1nnc(Nc2cc(-c3ccnc(N4CCn5c(cc6c5CC(C)(C)C6)C4=O)c3CO)cn(C)c2=O)s1 [Example 267, 3-[3-(hydroxymethyl)-4-[1-methyl-5-[(5-methyl-1,3,4-thiadiazol-2-yl)amino]-6-oxo-3-pyridyl]-2-pyridyl]-7,7-dimethyl-1,2,6,8-tetrahydrocyclopenta[3,4]pyrrolo[3,5-b]pyrazin-4-one] | 225
10 | Cn1cnc(Nc2cc(-c3ccnc(N4CCn5c(cc6c5CC(C)(C)C6)C4=O)c3CO)cn(C)c2=O)c1 [Example 268, 3-[3-(hydroxymethyl)-4-[1-methyl-5-[(1-methylimidazol-4-yl)amino]-6-oxo-3-pyridyl]-2-pyridyl]-7,7-dimethyl-1,2,6,8-tetrahydrocyclopenta[3,4]pyrrolo[3,5-b]pyrazin-4-one] | 212
11 | Cn1cc(-c2ccnc(N3CCn4c(cc5c4CC(C)(C)C5)C3=O)c2CO)cc(Nc2ccc(C(=O)N3CCOCC3)cn2)c1=O [Example 269, 3-[3-(hydroxymethyl)-4-[1-methyl-5-[[5-(morpholine-4-carbonyl)-2-pyridyl]amino]-6-oxo-3-pyridyl]-2-pyridyl]-7,7-dimethyl-1,2,6,8-tetrahydrocyclopenta[3,4]pyrrolo[3,5-b]pyrazin-4-one] | 25.1
12 | CN1CCn2nc(Nc3cc(-c4ccnc(N5CCn6c(cc7c6CCCC7)C5=O)c4CO)cn(C)c3=O)nc2C1 [Example 270, 2-[3-(hydroxymethyl)-4-[1-methyl-5-[(7-methyl-6,8-dihydro-5H-[1,2,4]triazolo[1,5-a]pyrazin-2-yl)amino]-6-oxo-3-pyridyl]-2-pyridyl]-3,4,6,7,8,9-hexahydropyrazino[1,2-a]indol-1-one] | 5900
13 | C[C@H]1CN(C2COC2)CCN1c1ccc(Nc2cc(-c3ccnc(N4CCn5c(cc6c5CC(C)(C)C6)C4=O)c3CO)c[nH]c2=O)nc1 [Example 271, 3-[3-(hydroxymethyl)-4-[5-[[5-[(2S)-2-methyl-4-(oxetan-3-yl)piperazin-1-yl]-2-pyridyl]amino]-6-oxo-1H-pyridin-3-yl]-2-pyridyl]-7,7-dimethyl-1,2,6,8-tetrahydrocyclopenta[3,4]pyrrolo[3,5-b]pyrazin-4-one] | 24.5
14 | Cn1cc(-c2ccnc(N3CCn4c(cc5c4CC(C)(C)C5)C3=O)c2CO)cc(Nc2ccc(C3CN(C4COC4)C3)cn2)c1=O [Example 272, 3-[3-(hydroxymethyl)-4-[1-methyl-5-[[5-[1-(oxetan-3-yl)azetidin-3-yl]-2-pyridyl]amino]-6-oxo-3-pyridyl]-2-pyridyl]-7,7-dimethyl-1,2,6,8-tetrahydrocyclopenta[3,4]pyrrolo[3,5-b]pyrazin-4-one] | 34
15 | Cn1cc(-c2ccnc(N3CCn4c(cc5c4CC(C)(C)C5)C3=O)c2CO)cc(Nc2ccccn2)c1=O [Example 273, 3-[3-(hydroxymethyl)-4-[1-methyl-6-oxo-5-(2-pyridylamino)-3-pyridyl]-2-pyridyl]-7,7-dimethyl-1,2,6,8-tetrahydrocyclopenta[3,4]pyrrolo[3,5-b]pyrazin-4-one] | 299
16 | Cc1cnc(Nc2cc(-c3ccnc(N4CCn5c(cc6c5CC(C)(C)C6)C4=O)c3CO)cn(C)c2=O)cn1 [Example 274, 3-[3-(hydroxymethyl)-4-[1-methyl-5-[(5-methylpyrazin-2-yl)amino]-6-oxo-3-pyridyl]-2-pyridyl]-7,7-dimethyl-1,2,6,8-tetrahydrocyclopenta[3,4]pyrrolo[3,5-b]pyrazin-4-one] | 466
17 | Cn1cc(-c2ccnc(N3CCn4c(cc5c4CC(C)(C)C5)C3=O)c2CO)cc(Nc2ccc(F)cn2)c1=O [Example 275, 3-[4-[5-[(5-fluoro-2-pyridyl)amino]-1-methyl-6-oxo-3-pyridyl]-3-(hydroxymethyl)-2-pyridyl]-7,7-dimethyl-1,2,6,8-tetrahydrocyclopenta[3,4]pyrrolo[3,5-b]pyrazin-4-one] | 423
18 | Cn1cc(-c2ccnc(N3CCn4c(cc5c4CC(C)(C)C5)C3=O)c2CO)cc(Nc2ccc(C#N)cn2)c1=O [Example 276, 6-[[5-[2-(7,7-dimethyl-4-oxo-1,2,6,8-tetrahydrocyclopenta[3,4]pyrrolo[3,5-b]pyrazin-3-yl)-3-(hydroxymethyl)-4-pyridyl]-1-methyl-2-oxo-3-pyridyl]amino]pyridine-3-carbonitrile] | 358
19 | COc1ccc(Nc2cc(-c3ccnc(N4CCn5c(cc6c5CC(C)(C)C6)C4=O)c3CO)cn(C)c2=O)nc1 [Example 277, 3-[3-(hydroxymethyl)-4-[5-[(5-methoxy-2-pyridyl)amino]-1-methyl-6-oxo-3-pyridyl]-2-pyridyl]-7,7-dimethyl-1,2,6,8-tetrahydrocyclopenta[3,4]pyrrolo[3,5-b]pyrazin-4-one] | 339
20 | Cn1cc(-c2ccnc(N3CCn4c(cc5c4CC(C)(C)C5)C3=O)c2CO)cc(Nc2ccc(C3CC3)cn2)c1=O [Example 278, 3-[4-[5-[(5-cyclopropyl-2-pyridyl)amino]-1-methyl-6-oxo-3-pyridyl]-3-(hydroxymethyl)-2-pyridyl]-7,7-dimethyl-1,2,6,8-tetrahydrocyclopenta[3,4]pyrrolo[3,5-b]pyrazin-4-one] | 3200
21 | Cn1cc(-c2ccnc(N3CCn4c(cc5c4CC(C)(C)C5)C3=O)c2CO)cc(Nc2ccc(C(F)(F)F)cn2)c1=O [Example 279, 3-[3-(hydroxymethyl)-4-[1-methyl-6-oxo-5-[[5-(trifluoromethyl)-2-pyridyl]amino]-3-pyridyl]-2-pyridyl]-7,7-dimethyl-1,2,6,8-tetrahydrocyclopenta[3,4]pyrrolo[3,5-b]pyrazin-4-one] | 2100
22 | Cn1nc(Nc2cc(-c3ccnc(N4CCn5c(cc6c5CC(C)(C)C6)C4=O)c3CO)cn(C)c2=O)cc1C(=O)N1CCOCC1 [Example 280, 3-[3-(hydroxymethyl)-4-[1-methyl-5-[[1-methyl-5-(morpholine-4-carbonyl)pyrazol-3-yl]amino]-6-oxo-3-pyridyl]-2-pyridyl]-7,7-dimethyl-1,2,6,8-tetrahydrocyclopenta[3,4]pyrrolo[3,5-b]pyrazin-4-one] | 14.1
23 | Cc1ccc(Nc2cc(-c3ccnc(N4CCn5c(cc6c5CC(C)(C)C6)C4=O)c3CO)cn(C)c2=O)nc1 [Example 281, 3-[3-(hydroxymethyl)-4-[1-methyl-5-[(5-methyl-2-pyridyl)amino]-6-oxo-3-pyridyl]-2-pyridyl]-7,7-dimethyl-1,2,6,8-tetrahydrocyclopenta[3,4]pyrrolo[3,5-b]pyrazin-4-one] | 718
24 | C[C@H]1CN(C2COC2)CCN1c1ccc(Nc2cc(-c3ccnc(-n4ncc5c6c(sc5c4=O)CC(C)(C)C6)c3CO)cn(C)c2=O)nc1 [Example 282, 3-[3-(hydroxymethyl)-4-[1-methyl-5-[[5-[(2S)-2-methyl-4-(oxetan-3-yl)piperazin-1-yl]-2-pyridyl]amino]-6-oxo-3-pyridyl]-2-pyridyl]-7,7-dimethyl-6,8-dihydrocyclopenta[3,4]thieno[1,3-d]pyridazin-4-one] | 17.4
